Data on 15 molecules can be found in patent publication US20140148443A1, “Novel Imidazolines as dual inhibitors of MDM2 and MDMX” (priority 2012, published 2014).

pIC50: −log10 of the molar value.

In assay [1] the target is T1, GST-tagged MDMX (Homo sapiens, UniProt O15151).
T1 sequence (O15151 1-490): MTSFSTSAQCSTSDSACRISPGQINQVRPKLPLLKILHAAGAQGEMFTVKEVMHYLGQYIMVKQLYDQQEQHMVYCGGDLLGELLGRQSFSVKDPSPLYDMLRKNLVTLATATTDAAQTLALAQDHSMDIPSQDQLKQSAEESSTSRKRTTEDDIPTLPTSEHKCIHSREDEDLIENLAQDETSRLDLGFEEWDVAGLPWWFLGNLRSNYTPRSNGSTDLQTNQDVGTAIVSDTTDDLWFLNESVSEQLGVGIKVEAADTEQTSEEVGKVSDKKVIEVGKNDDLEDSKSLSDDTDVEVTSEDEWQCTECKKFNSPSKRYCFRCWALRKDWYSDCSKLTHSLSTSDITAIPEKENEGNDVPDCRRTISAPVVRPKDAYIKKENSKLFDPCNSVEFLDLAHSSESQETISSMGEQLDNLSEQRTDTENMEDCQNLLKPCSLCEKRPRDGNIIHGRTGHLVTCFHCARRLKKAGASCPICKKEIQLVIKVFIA
The assay can be described thus: HTRF binding assay of GST-tagged MDMX to p53 peptide. (TR-FRET usually uses a lanthanide donor and a delayed reading to cut background.)

Assay [2] concerns the target recombinant GST-tagged MDM2 (Homo sapiens, UniProt Q00987). Description: HTRF assay of interaction between p53 peptide and GST-tagged MDM2. The note with it: inhibition of GST-MDM2 (160 ng/ml) binding to biotinylated p53-peptide. The procedure:
The ability of a test compound to inhibit the interaction between p53 and MDM2 protein was measured by an HTRF (homogeneous time-resolved fluorescence) assay in which recombinant GST-tagged MDM2 binds to a peptide that resembles the MDM2-interacting region of p53 Aca-[…]-OH hereinafter p53-peptide). Binding of GST-MDM2 protein and p53-peptide (biotinylated on its N-terminal end) is registered by the FRET (fluorescence resonance energy transfer) between Europium (Eu)-labeled anti-GST antibody and streptavidin-conjugated Allophycocyanin (APC).
The test was performed in black flat-bottom 384-well plates (Costar) in a total volume of 40 uL containing: 90 nM biotinylated peptide, 160 ng/ml GST-MDM2, 20 nM streptavidin-APC (PerkinElmerWallac), 2 nM Eu-labeled anti-GST-antibody (PerkinElmerWallac), 0.02% bovine serum albumin (BSA), 1 mM dithiothreitol (DTT) and 20 mM […] (TBS) buffer as follows: add 10 uL of GST-MDM2 (640 ng/ml working solution) in reaction buffer to each well. Add 10 uL diluted compounds (1:5 dilution in reaction buffer) to each well, mix by shaking. Add 20 uL biotinylated p53 peptide (180 nM working solution) in reaction buffer to each well and mix on shaker. Incubate at 37° C. for 1 h. Add […] streptavidin-APC and Eu-anti-GST antibody mixture (6 nM Eu-anti-GST and 60 nM streptavidin-APC working solution) in TBS buffer with 0.02% BSA, shake at room temperature for 30 minutes and read using a TRF-capable plate reader at 665 and 615 nm (Victor 5, Perkin ElmerWallac). If not specified, the reagents were purchased from Sigma Chemical Co.

recombinant GST-tagged MDM2, sequence (Q00987 whole entry): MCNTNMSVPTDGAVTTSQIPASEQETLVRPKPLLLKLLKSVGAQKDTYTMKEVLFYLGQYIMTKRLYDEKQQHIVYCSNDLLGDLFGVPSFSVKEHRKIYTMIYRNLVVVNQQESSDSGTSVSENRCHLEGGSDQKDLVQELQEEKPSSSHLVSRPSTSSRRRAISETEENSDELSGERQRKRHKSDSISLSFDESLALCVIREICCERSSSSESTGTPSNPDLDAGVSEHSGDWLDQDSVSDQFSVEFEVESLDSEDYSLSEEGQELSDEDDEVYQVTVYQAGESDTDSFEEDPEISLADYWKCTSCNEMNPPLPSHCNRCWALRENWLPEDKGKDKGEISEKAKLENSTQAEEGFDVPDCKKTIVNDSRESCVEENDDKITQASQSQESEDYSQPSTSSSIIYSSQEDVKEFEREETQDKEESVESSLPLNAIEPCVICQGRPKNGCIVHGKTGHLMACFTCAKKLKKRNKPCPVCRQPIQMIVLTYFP

The pIC50 is the negative decadic logarithm of the IC50, by convention in mol/L. With `CCOc1cc(Cl)c(S(C)(=O)=O)cc1C1=N[C@@](C)(c2ccc(Cl)cc2)[C@@](C)(c2ccc(Cl)cc2)N1C(=O)N1CCN(CC(=O)N(CCOC)CCOC)CC1` [Example 15, 2-{4-[(4S,5R)-2-(4-Chloro-2-ethoxy-5-methanesulfonyl-phenyl)-4,5-bis-(4-chloro-phenyl)-4,5-dimethyl-4,5-dihydro-imidazole-1-carbonyl]-piperazin-1-yl}-N,N-bis-(2-methoxy-ethyl)-acetamide], the pIC50 was 5.94 in assay [1] and 8.26 in assay [2].

Consider `CCOCCN(CCOCC)C(=O)CN1CCN(C(=O)N2C(c3cc(S(C)(=O)=O)c(Cl)cc3OCC)=N[C@@](C)(c3ccc(Cl)cc3)[C@@]2(C)c2ccc(Cl)cc2)CC1` [Example 16, 2-{4-[(4S,5R)-2-(4-Chloro-2-ethoxy-5-methanesulfonyl-phenyl)-4,5-bis-(4-chloro-phenyl)-4,5-dimethyl-4,5-dihydro-imidazole-1-carbonyl]-piperazin-1-yl}-N,N-bis-(2-ethoxy-ethyl)-acetamide], for which the pIC50 is 6.07 in assay [1] and 8.30 in assay [2].

For `CCOc1cc(Cl)c(S(C)(=O)=O)cc1C1=N[C@@](C)(c2ccc(Cl)cc2)[C@@](C)(c2ccc(Cl)cc2)N1C(=O)N1CCN(CC(=O)N2CCOCC2)CC1` [Example 17, 2-{4-[(4S,5R)-2-(4-Chloro-2-ethoxy-5-methanesulfonyl-phenyl)-4,5-bis-(4-chloro-phenyl)-4,5-dimethyl-4,5-dihydro-imidazole-1-carbonyl]-piperazin-1-yl}-1-morpholin-4-yl-ethanone], the pIC50 in assay [1] is 5.87; in assay [2], 8.28.

As to `CCOc1cc(Cl)c(S(C)(=O)=O)cc1C1=N[C@@](C)(c2ccc(Cl)cc2)[C@@](C)(c2ccc(Cl)cc2)N1C(=O)N1CCN(CCS(C)(=O)=O)CC1` [Example 18, [(4S,5R)-2-(4-Chloro-2-ethoxy-5-methanesulfonyl-phenyl)-4,5-bis-(4-chloro-phenyl)-4,5-dimethyl-4,5-dihydro-imidazol-1-yl]-[4-(2-methanesulfonyl-ethyl)-piperazin-1-yl]-methanone], the pIC50 in assay [1] was 5.84; in assay [2], 8.22.

For `CCOc1cc(Cl)c(S(C)(=O)=O)cc1C1=N[C@@](C)(c2ccc(Cl)cc2)[C@@](C)(c2ccc(Cl)cc2)N1C(=O)N1CCC2(CCNCC2)CC1` [Example 19, [(4S,5R)-2-(4-Chloro-2-ethoxy-5-methanesulfonyl-phenyl)-4,5-bis-(4-chloro-phenyl)-4,5-dimethyl-4,5-dihydro-imidazol-1-yl]-(3,9-diaza-spiro[5.5]undec-3-yl)-methanone], the pIC50 in assay [1] was 5.42; in assay [2] it was 7.90.

In the case of `CCOc1cc(Cl)c(S(C)(=O)=O)cc1C1=N[C@@](C)(c2ccc(Cl)cc2)[C@@](C)(c2ccc(Cl)cc2)N1C(=O)N1CCN(C2CCS(=O)(=O)C2)CC1` (stereo partly drawn) [Example 20, [(4S,5R)-2-(4-Chloro-2-ethoxy-5-methanesulfonyl-phenyl)-4,5-bis-(4-chloro-phenyl)-4,5-dimethyl-4,5-dihydro-imidazol-1-yl]-[4-(1,1-dioxo-tetrahydro-thiophen-3-yl)-piperazin-1-yl]-methanone], the pIC50 was 5.44 in assay [1] and 8.27 in assay [2].

On to `CCOc1cc(Cl)c(S(C)(=O)=O)cc1C1=N[C@@](C)(c2ccc(Cl)cc2)[C@@](C)(c2ccc(Cl)cc2)N1C(=O)N1CCC2(CCN(CC(N)=O)CC2)CC1` [Example 21, 2-{9-[(4S,5R)-2-(4-Chloro-2-ethoxy-5-methanesulfonyl-phenyl)-4,5-bis-(4-chloro-phenyl)-4,5-dimethyl-4,5-dihydro-imidazole-1-carbonyl]-3,9-diaza-spiro[5.5]undec-3-yl}-acetamide], for which the pIC50 in assay [1] is 5.83; in assay [2] it was 8.24.

In the case of `CCOc1cc(Cl)c(S(C)(=O)=O)cc1C1=N[C@@](C)(c2ccc(Cl)cc2)[C@@](C)(c2ccc(Cl)cc2)N1C(=O)N1CCC(CCCS(C)(=O)=O)CC1` [Example 22, [(4S,5R)-2-(4-Chloro-2-ethoxy-5-methanesulfonyl-phenyl)-4,5-bis-(4-chloro-phenyl)-4,5-dimethyl-4,5-dihydro-imidazol-1-yl]-[4-(3-methanesulfonyl-propyl)-piperidin-1-yl]-methanone], the pIC50 in assay [1] was 5.87; in assay [2], 8.34.

Regarding `CCOc1cc(Cl)c(S(C)(=O)=O)cc1C1=N[C@@](C)(c2ccc(Cl)cc2)[C@@](C)(c2ccc(Cl)cc2)N1C(=O)N1CCN(CC(=O)N(CCOC(C)C)CCOC(C)C)CC1` [Example 23, 2-{4-[(4S,5R)-2-(4-Chloro-2-ethoxy-5-methanesulfonyl-phenyl)-4,5-bis-(4-chloro-phenyl)-4,5-dimethyl-4,5-dihydro-imidazole-1-carbonyl]-piperazin-1-yl}-N,N-bis-(2-isopropoxy-ethyl)-acetamide], the results for the pIC50 in assay [1] and in assay [2] were 5.73 and 8.26, respectively.

With `CCOc1cc(Cl)c(S(C)(=O)=O)cc1C1=N[C@@](C)(c2ccc(Cl)cc2)[C@@](C)(c2ccc(Cl)cc2)N1C(=O)N1CCC(CC(=O)N(CCOC)CCOC)CC1` [Example 24, 2-{1-[(4S,5R)-2-(4-Chloro-2-ethoxy-5-methanesulfonyl-phenyl)-4,5-bis-(4-chloro-phenyl)-4,5-dimethyl-4,5-dihydro-imidazole-1-carbonyl]-piperidin-4-yl}-N,N-bis-(2-methoxy-ethyl)-acetamide], the figures for the pIC50 in assay [1] and in assay [2] were 5.82 and 8.14, respectively.

As to `CCOCCN(CCOCC)C(=O)CC1CCN(C(=O)N2C(c3cc(S(C)(=O)=O)c(Cl)cc3OCC)=N[C@@](C)(c3ccc(Cl)cc3)[C@@]2(C)c2ccc(Cl)cc2)CC1` [Example 25, 2-{1-[(4S,5R)-2-(4-Chloro-2-ethoxy-5-methanesulfonyl-phenyl)-4,5-bis-(4-chloro-phenyl)-4,5-dimethyl-4,5-dihydro-imidazole-1-carbonyl]-piperidin-4-yl}-N,N-bis-(2-ethoxy-ethyl)-acetamide], the pIC50 was 5.82 in assay [1] and 8.36 in assay [2].

Consider `CCOc1cc(Cl)c(S(C)(=O)=O)cc1C1=N[C@@](C)(c2ccc(Cl)cc2)[C@@](C)(c2ccc(Cl)cc2)N1C(=O)N1CCN(CCS(=O)(=O)CC)CC1` [Example 26, [(4S,5R)-2-(4-Chloro-2-ethoxy-5-methanesulfonyl-phenyl)-4,5-bis-(4-chloro-phenyl)-4,5-dimethyl-4,5-dihydro-imidazol-1-yl]-[4-(2-ethanesulfonyl-ethyl)-piperazin-1-yl]-methanone], for which the pIC50 is 5.70 in assay [1] and 8.28 in assay [2].

For the molecule `CCOc1cc(Cl)c(S(C)(=O)=O)cc1C1=N[C@@](C)(c2ccc(Cl)cc2)[C@@](C)(c2ccc(Cl)cc2)N1C(=O)N1CCN(CCC(N)=O)CC1` [Example 27, 3-{4-[(4S,5R)-2-(4-Chloro-2-ethoxy-5-methanesulfonyl-phenyl)-4,5-bis-(4-chloro-phenyl)-4,5-dimethyl-4,5-dihydro-imidazole-1-carbonyl]-piperazin-1-yl}-propionamide], the values for the pIC50 in assay [1] and in assay [2] were 5.55 and 8.06, respectively.

Regarding `CCOc1cc(Cl)c(S(C)(=O)=O)cc1C1=N[C@@](C)(c2ccc(Cl)cc2)[C@@](C)(c2ccc(Cl)cc2)N1C(=O)N1CCC2(CCN(CCS(=O)(=O)CC)CC2)CC1` [Example 28, [(4S,5R)-2-(4-Chloro-2-ethoxy-5-methanesulfonyl-phenyl)-4,5-bis-(4-chloro-phenyl)-4,5-dimethyl-4,5-dihydro-imidazol-1-yl]-[9-(2-ethanesulfonyl-ethyl)-3,9-diaza-spiro[5.5]undec-3-yl]-methanone], the pIC50 in assay [1] is 5.83; in assay [2], 8.34.

Consider `CCOc1cc(Cl)c(S(C)(=O)=O)cc1C1=N[C@@](C)(c2ccc(Cl)cc2)[C@@](C)(c2ccc(Cl)cc2)N1C(=O)N1CCN(CC(=O)NC)CC1` [Example 29, 2-{4-[(4S,5R)-2-(4-Chloro-2-ethoxy-5-methanesulfonyl-phenyl)-4,5-bis-(4-chloro-phenyl)-4,5-dimethyl-4,5-dihydro-imidazole-1-carbonyl]-piperazin-1-yl}-N-methyl-acetamide], for which the pIC50 in assay [1] is 5.99; in assay [2], 8.30.
